Reference: ChEMBL document CHEMBL3853266, “A complex game of hide and seek: the search for new antifungals” (Medchemcomm, 2016)
≈ marks a conversion by molar mass, not a printed value.

Test: Antifungal activity against Candida albicans clinical isolate by serial twofold dilution microtitre plate method
Type: functional

MIC: 1 µg/mL (≈ 2.42 µM)
Structure (SMILES): COc1ccc2oc(=O)sc2c1C(=O)/C=C/c1ccc(OCCCN(C)C)cc1
